Measurements taken from US20150274719A1, “AMINO-SUBSTITUTED IMIDAZO[1,2-A]PYRIDINECARBOXAMIDES AND THEIR USE” (BAYER PHARMA AKTIENGESELLSCHAFT, priority 2012, published 2015).
Counter-ions that a name gives are not always drawn. Like-named read-outs stand apart in the source and are kept apart here.

Experiments:
[1] = molecular target: T1, recombinant guanylate cyclase reporter cell line (Rattus norvegicus, UniProt P19686+P20595); experiment: Action on recombinant guanylate cyclase reporter cell line; format: cell-based; conditions: in some cases mean values from individual determinations
T1 construct: expressed in transfected cells; host or cells: recombinant reporter cell line
T1 sequence (P19686 1-690): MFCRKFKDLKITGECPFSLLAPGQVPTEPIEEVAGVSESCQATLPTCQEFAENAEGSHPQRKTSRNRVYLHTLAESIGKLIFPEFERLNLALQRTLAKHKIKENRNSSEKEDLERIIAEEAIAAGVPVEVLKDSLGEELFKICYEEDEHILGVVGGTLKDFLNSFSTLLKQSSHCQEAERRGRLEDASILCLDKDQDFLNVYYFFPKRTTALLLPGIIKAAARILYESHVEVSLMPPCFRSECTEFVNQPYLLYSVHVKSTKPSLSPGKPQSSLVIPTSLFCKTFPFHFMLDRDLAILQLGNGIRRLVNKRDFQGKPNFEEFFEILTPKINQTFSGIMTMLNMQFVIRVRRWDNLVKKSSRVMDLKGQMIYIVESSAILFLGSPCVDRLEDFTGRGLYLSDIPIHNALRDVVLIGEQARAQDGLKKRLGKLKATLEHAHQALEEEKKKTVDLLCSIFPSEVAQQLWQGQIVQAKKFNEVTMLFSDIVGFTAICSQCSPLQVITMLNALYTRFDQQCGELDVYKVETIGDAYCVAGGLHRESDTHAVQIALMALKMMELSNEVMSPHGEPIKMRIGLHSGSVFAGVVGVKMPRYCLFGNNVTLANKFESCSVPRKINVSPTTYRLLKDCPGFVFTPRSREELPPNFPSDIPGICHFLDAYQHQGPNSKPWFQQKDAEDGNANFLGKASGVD
T1 sequence (P20595 1-619): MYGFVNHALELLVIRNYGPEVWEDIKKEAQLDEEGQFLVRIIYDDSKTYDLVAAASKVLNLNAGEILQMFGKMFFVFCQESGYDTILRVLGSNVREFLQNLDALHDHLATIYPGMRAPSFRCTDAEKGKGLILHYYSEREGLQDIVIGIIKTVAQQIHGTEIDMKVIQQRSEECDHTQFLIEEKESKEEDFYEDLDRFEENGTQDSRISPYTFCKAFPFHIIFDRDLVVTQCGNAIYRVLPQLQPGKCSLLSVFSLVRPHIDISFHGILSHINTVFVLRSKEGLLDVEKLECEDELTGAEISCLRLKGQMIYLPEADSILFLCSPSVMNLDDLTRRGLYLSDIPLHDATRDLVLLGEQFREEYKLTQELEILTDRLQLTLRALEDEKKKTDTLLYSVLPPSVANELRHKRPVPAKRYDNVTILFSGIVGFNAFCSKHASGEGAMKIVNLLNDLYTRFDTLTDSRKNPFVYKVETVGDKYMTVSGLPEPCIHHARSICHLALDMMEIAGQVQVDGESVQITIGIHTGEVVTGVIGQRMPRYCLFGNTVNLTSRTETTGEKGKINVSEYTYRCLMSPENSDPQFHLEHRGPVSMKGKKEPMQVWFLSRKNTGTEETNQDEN
Procedure, shortened: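 MEC values, meaning the lowest concentration producing a detectable response, were taken from a recombinant cyclase reporter cell assay. Where repeated, individual determinations were averaged.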

[2] = Determination of pharmacokinetic parameters following intravenous and oral administration (rats); format: in vivo, male Wistar rats; conditions: intravenous administration in rats
Protocol: B-6. Determination of Pharmacokinetic Parameters Following Intravenous and Oral Administration
The pharmacokinetic parameters of the compounds according to the invention are determined in male CD-1 mice, male Wistar rats and female beagles. Intravenous administration in the case of mice and rats is carried out by means of a species-specific plasma/DMSO formulation, and in the case of dogs by means of a water/PEG400/ethanol formulation. In all species, oral administration of the dissolved substance is performed via gavage, based on a water/PEG400/ethanol formulation. The taking of blood from rats is simplified by inserting a silicone catheter into the right Vena jugularis externa prior to substance administration. The operation is carried out at least one day prior to the experiment with […] and administration of an analgesic (atropin/Rimadyl (3/1) 0.1 ml s.c.). The blood is taken (generally more than 10 time points) within a time window including terminal time points of at least 24 to a maximum of 72 hours after substance administration. When the blood is taken, it is passed into heparinised tubes. Then the blood plasma is obtained by centrifugation and is optionally stored at −20° C. until further processing.
An internal standard (which may also be a chemically unrelated substance) is added to the samples of the compounds according to the invention, calibration samples and qualifiers, and there follows protein precipitation by means of excess acetone. Addition of a buffer solution matched to the LC conditions, and subsequent vortexing, is followed by centrifugation at 1000 g. The supernatant is analysed by LC-MS/MS using C18 reversed-phase columns and variable mobile phase mixtures. The substances are quantified via the peak heights or areas from extracted ion chromatograms of specific selected ion monitoring experiments.
The plasma concentration/time plots determined are used to calculate the pharmacokinetic parameters such as AUC, Cmax, t1/2 (terminal half life), F (bioavailability), MRT (mean residence time) and CL (clearance), using a validated pharmacokinetic calculation program.
Since the substance quantification is carried out in plasma, it is necessary to determine the blood/plasma distribution of the substance in order to be able to adjust the pharmacokinetic parameters correspondingly. For this purpose, a defined amount of substance is incubated in heparinized whole blood of the species in question in a rocking roller mixture for 20 min. After centrifugation at 1000 g, the plasma concentration is measured (by means of LC-MS/MS; see above) and determined by calculating the ratio of the Cblood/Cplasma value.

[3] = male, Wistar, rat, plasma, iv, read-out: MRT

Structure (SMILES)	MEC (minimal effective concentration) [1]	AUCnorm [2]	CLblood [2]	half-life ([2]; male, Wistar, rat, plasma, iv)	MRT [2, 3]	MRT [2]	t1/2 [2]
CCC(C)(N)CNC(=O)c1c(C)nc2c(OCc3c(F)cccc3F)cc(C(F)F)cn12 (single isomer, unassigned; enantiomer a) [Example 287, ent-N-(2-amino-2-methylbutyl)-8-[(2,6-difluorobenzyl)oxy]-6-(difluoromethyl)-2-methylimidazo[1,2-a]pyridine-3-carboxamide Formate (Enantiomer A)]	0.3 µM	0.66 kg·h/L	29.3 mL/min/kg	5.4 h	8.4 h		
CCCC(C)(N)CNC(=O)c1c(C)nc2c(OCc3c(F)cccc3F)cc(C(F)F)cn12 (single isomer, unassigned; enantiomer b) [Example 289, ent-N-(2-amino-2-methylpentyl)-8-[(2,6-difluorobenzyl)oxy]-6-(difluoromethyl)-2-methyl-imidazo[1,2-a]pyridine-3-carboxamide Formate (Enantiomer B)]	0.3 µM	0.38 kg·h/L	41.8 mL/min/kg	4.4 h	6.8 h		
CCCC(C)(N)CNC(=O)c1c(C)nc2c(OCc3c(F)ccc(F)c3F)cc(C)cn12 (single isomer, unassigned) [Example 295, ent-N-(2-amino-2-methylpentyl)-2,6-dimethyl-8-[(2,3,6-trifluorobenzyl)oxy]imidazo[1,2-a]pyridine-3-carboxamide]	0.10 µM	0.56 kg·h/L	20.5 mL/min/kg	6.6 h	8.8 h		
CCC(C)(N)CNC(=O)c1c(C)nc2c(OCc3c(F)cccc3F)cc(OC)cn12 (single isomer, unassigned; enantiomer a) [Example 279, ent-N-(2-amino-2-methylbutyl)-8-[(2,6-difluorobenzyl)oxy]-6-methoxy-2-methylimidazo[1,2-a]pyridine-3-carboxamide (Enantiomer A)]	0.3 µM	0.42 kg·h/L	46 mL/min/kg	2.3 h	2.9 h		
Cc1nc2c(OCc3c(F)cccc3F)cc(C(F)F)cn2c1C(=O)NCC(C)(N)CF (single isomer, unassigned; enantiomer b) [Example 292, ent-N-(2-amino-3-fluoro-2-methylpropyl)-8-[(2,6-difluorobenzyl)oxy]-6-(difluoromethyl)-2-methylimidazo[1,2-a]pyridine-3-carboxamide (Enantiomer B)]	0.03 µM	0.56 kg·h/L	36.2 mL/min/kg			4.1 h	3.2 h
Cc1cc(OCc2c(F)ccc(F)c2F)c2nc(C)c(C(=O)NCC(C)(N)CCC(F)(F)F)n2c1 (single isomer, unassigned) [Example 411, ent-N-(2-amino-5,5,5-trifluoro-2-methylpentyl)-2,6-dimethyl-8-[(2,3,6-trifluorobenzyl)oxy]imidazo[1,2-a]pyridine-3-carboxamide]	0.03 µM	0.41 kg·h/L	25.3 mL/min/kg			11.2 h	8.2 h
CCC(C)(N)CNC(=O)c1c(C)nc2c(OCc3c(F)cccc3F)cc(Cl)cn12 (single isomer, unassigned) [Example 194, ent-N-(2-Amino-2-methylbutyl)-6-chloro-8-[(2,6-difluorobenzyl)oxy]-2-methylimidazo[1,2-a]-pyridine-3-carboxamide]	0.10 µM	2.06 kg·h/L	8 mL/min/kg	16.8 h	24.4 h		
Cc1cc(OCc2c(F)cccc2F)c2nc(C)c(C(=O)NCC(C)(N)CF)n2c1 (single isomer, unassigned; enantiomer a) [Example 283, ent-N-(2-amino-3-fluoro-2-methylpropyl)-8-[(2,6-difluorobenzyl)oxy]-2,6-dimethylimidazo[1,2-a]pyridine-3-carboxamide (Enantiomer A)]	0.3 µM	0.67 kg·h/L	14.5 mL/min/kg	3.1 h	3.9 h		
Cc1cc(OCc2c(F)ccc(F)c2F)c2nc(C)c(C(=O)NCC(C)(N)CCC(F)(F)F)n2c1 (single isomer, unassigned) [Example 410, ent-N-(2-amino-5,5,5-trifluoro-2-methylpentyl)-2,6-dimethyl-8-[(2,3,6-trifluorobenzyl)oxy]imidazo[1,2-a]pyridine-3-carboxamide]	0.10 µM	0.21 kg·h/L	46.2 mL/min/kg	4.3 h		5.4 h	
Cc1cc(OCc2c(F)cccc2F)c2nc(C)c(C(=O)NCC(C)(N)C3CC3)n2c1 (single isomer, unassigned; enantiomer b) [Example 261, ent-N-(2-Amino-2-cyclopropylpropyl)-8-[(2,6-difluorobenzyl)oxy]-2,6-dimethylimidazo[1,2-a]-pyridine-3-carboxamide (Enantiomer B)]	0.10 µM	0.47 kg·h/L	38.2 mL/min/kg	3.7 h	4.7 h		
Cc1cc(OCc2c(F)ccc(F)c2F)c2nc(C)c(C(=O)NCC(C)(N)CF)n2c1 (single isomer, unassigned; enantiomer b) [Example 286, ent-N-(2-amino-3-fluoro-2-methylpropyl)-2,6-dimethyl-8-[(2,3,6-trifluorobenzyl)oxy]imidazo[1,2-a]pyridine-3-carboxamide (Enantiomer B)]	0.1 µM	0.82 kg·h/L	23.2 mL/min/kg			4.5 h	3.8 h
C#Cc1cc(OCc2c(F)cccc2F)c2nc(C)c(C(=O)NCC(C)(N)CCC)n2c1 (stereo not drawn) [Example 356, ent-N-(2-amino-2-methylpentyl)-8-[(2,6-difluorobenzyl)oxy]-6-ethynyl-2-methylimidazo[1,2-a]pyridine-3-carboxamide]	0.10 µM	0.61 kg·h/L	16.3 mL/min/kg	10.3 h	13.9 h		
